{"source": "patent US8388939B2", "about": "“Moisturizing cosmetic composition comprising a combination of homarine and erythritol” (Sederma, S.A.S., priority 2008, dated 2013)", "test_system": "Human keratinocytes", "experiment": "Synergistic osmo-protective activity of homarine and erythritol after NaCl hyper-osmotic stress; UPTIBLUE cell count", "format": "cell-based", "experimental": "Human kerotinocytes were cultured for 24 h in a culture medium (DMEMc+FCS) than incubated until confluence was obtained. At this stage, the cells were putted in pre-contact with the compounds for 24 h. The day after, a 5h NaCl stress in the presence of the compounds was applied to the cells in the DMEMc medium (without FCS, with BSA) containing 150 mM of NaCl. After this stress, cells were rinced and were recovered with or without the compounds to be tested in the same medium as before (T0). Recovery was estimated at long term by measuring the survival at T5 days and at T7 days after the beginning of the stress (T0). The compounds were tested at the following concentrations: erythritol 0.6%, homarine 0.006% (corresponding to 1×) and homarine 0.06% (corresponding to 10×).\nThe UPTIBLUE technic was used to visualize and quantify the cell number after the hyper-osmotic shock and the osmo-protective effect of the compound was thus evaluated.", "data": [{"smiles": "OC[C@@H](O)[C@@H](O)CO", "note": "[Erythritol]", "values": [{"measurement": "% of change in cell count versus control (post-stress)", "setting": "T0, erythritol 0.6% alone", "result": "−8", "unit": "%"}, {"measurement": "% of change in cell count versus control (post-stress)", "setting": "T5 days, erythritol 0.6% alone", "result": "+39%"}, {"measurement": "% of change in cell count versus control (post-stress)", "setting": "T7 days, erythritol 0.6% alone", "result": "+62%"}]}, {"smiles": "C[n+]1ccccc1C(=O)[O-]", "note": "[Homarine]", "values": [{"measurement": "Osmo-protective effect with regards a hyper-osmotic stress, in words", "setting": "5 and 7 days after hyper-osmotic shock", "result": "dose dependant"}, {"measurement": "% of change in cell count versus control (post-stress)", "setting": "T0, homarine 0.006% (1x), erythritol 0.6% where combined", "result": "+10%"}, {"measurement": "% of change in cell count versus control (post-stress)", "setting": "T0, homarine 0.06% (10x), erythritol 0.6% where combined", "result": "+14%"}, {"measurement": "% of change in cell count versus control (post-stress)", "setting": "T5 days, homarine 0.006% (1x), erythritol 0.6% where combined", "result": "+33%"}, {"measurement": "% of change in cell count versus control (post-stress)", "setting": "T5 days, homarine 0.06% (10x), erythritol 0.6% where combined", "result": "+93%"}, {"measurement": "% of change in cell count versus control (post-stress)", "setting": "T7 days, homarine 0.006% (1x), erythritol 0.6% where combined", "result": "+26%"}, {"measurement": "% of change in cell count versus control (post-stress)", "setting": "T7 days, homarine 0.06% (10x), erythritol 0.6% where combined", "result": "+130%"}]}]}
